Data on one compound can be found in US20100063112A1, “POLYMORPH III OF 4-[4-(AMINO)-3-FLUOROPHENOXY]-N-METHYLPYRIDINE-2-CARBOXAMIDE” (BAYER SCHERING PHARMA AKTIENGESELLSCHAFT, priority 2006, published 2010).

This data set is described as follows: solubility in water and in organic solvents. It is filed as physicochemical.

`CNC(=O)c1cc(Oc2ccc(NC(=O)Nc3ccc(Cl)c(C(F)(F)F)c3)c(F)c2)ccn1` [polymorph III, 4-[4-({[4-chloro-3-(trifluoromethyl)phenyl]carbamoyl}amino)-3-fluorophenoxy]-N-methylpyridine-2-carboxamide in the polymorph III]: under “organic solvents”, the “solubility in organic solvents” value is “high”. In addition, for the setting “water”, the solubility in water entry is listed as “high”.
